Results reported in PMC13197777, “Distinct 2-phenylimidazo[1,2-a]pyridine derivatives that inhibit breast cancer cell proliferation identified as AHR ligands” (iScience, 2026).
Where two headings read alike, the source gives them in different places.

Legend:
[1] = target: T1, AHR (Homo sapiens, UniProt P35869); experiment: AHR luciferase reporter assay in HAHLH cells; assay type: cell-based; details: 8 h; for EC50: % of maximal luciferase activity with dioxin 10 nM, read-out: EC50 AHR transactivation
T1 construct: endogenous in cells; host or cells: HAHLH (HeLa with XRE-luciferase reporter)
T1 sequence (P35869 11-848): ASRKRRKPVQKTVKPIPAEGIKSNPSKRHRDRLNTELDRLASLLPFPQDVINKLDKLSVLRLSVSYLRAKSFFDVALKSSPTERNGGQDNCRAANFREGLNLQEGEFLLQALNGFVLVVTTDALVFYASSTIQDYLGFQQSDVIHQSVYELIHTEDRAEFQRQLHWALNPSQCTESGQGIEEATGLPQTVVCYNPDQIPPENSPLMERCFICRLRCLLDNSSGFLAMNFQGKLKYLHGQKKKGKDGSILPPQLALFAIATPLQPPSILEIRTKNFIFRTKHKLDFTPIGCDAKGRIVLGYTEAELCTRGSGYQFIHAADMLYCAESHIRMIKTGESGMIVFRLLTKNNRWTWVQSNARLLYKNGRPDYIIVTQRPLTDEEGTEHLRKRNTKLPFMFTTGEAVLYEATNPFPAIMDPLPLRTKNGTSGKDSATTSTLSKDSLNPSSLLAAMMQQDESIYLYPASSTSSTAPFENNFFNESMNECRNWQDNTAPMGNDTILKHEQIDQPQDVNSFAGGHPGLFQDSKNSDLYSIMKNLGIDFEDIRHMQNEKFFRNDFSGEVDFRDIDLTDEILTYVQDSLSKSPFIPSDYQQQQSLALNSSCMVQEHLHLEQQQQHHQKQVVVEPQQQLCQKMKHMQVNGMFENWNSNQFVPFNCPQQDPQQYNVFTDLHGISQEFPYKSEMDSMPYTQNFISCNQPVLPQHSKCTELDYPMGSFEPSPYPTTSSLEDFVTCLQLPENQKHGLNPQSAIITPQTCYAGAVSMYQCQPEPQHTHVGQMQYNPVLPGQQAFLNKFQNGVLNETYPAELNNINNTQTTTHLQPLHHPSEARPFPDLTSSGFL
From the text: (§1) To characterize the chemical induced AHR activity, we used the already established HAHLH reporter cell lines obtained by stably expression of HeLa cells with the dioxin-responsive gene XRE(TnGCGTG)3-tata-luciferase-Luc-hygromycin plasmid.[29] The reporter HELN hERα cell line was obtained by transfecting human HeLa cells with the ERE-responsive gene ERE-βGlobin-luciferase-Luc-neomycin and the pSG5-hERα-puromycin plasmids as previously described.[59] To determine the action of the chemical on AHR and hERα activity, cells were seeded at a density of 50,000 cells per well in 96-well white opaque tissue culture plates (Greiner CellStar) in 150 μL of Dulbecco’s Modified Eagle Medium: Nutrient Mixture F-12 (DMEM/F- 12) without phenol red and 1 g/L glucose and supplemented with 5% stripped fetal bovine serum, 100 units/mL of penicillin, 100 μg/mL of streptomycin (test medium). Twenty-four hours later, chemicals to be tested were added at 4x concentration in culture medium, and cells were incubated at 37 °C for 8 h (HAhLH cells) or 24 h (HELN hERα cells). At the end of the incubation period, culture medium was replaced with test medium containing 0.3 mM luciferin and luciferase activity was measured for 2 s in intact living cells using a MicroBeta Wallac luminometer (PerkinElmer). Tests were performed in quadruplicate at 4x concentration in the same medium in at least 4 independent experiments. Results were expressed as % of the maximal luciferase activity. […] Effective concentration (ECs) for a given compound, EC50 is defined as the concentration inducing 50% of its maximal effect. The EC50 values were calculated including the adjustment for the basal activity of the cell line.

[2] = system: ER+ MCF-7, ZR75–1, and T47D breast cancer cells; design: method as in PMID 37520743; details: previously identified ref 17; cited from earlier work
[3] = system: MCF-7 cells; experiment: Clonogenic assay in MCF-7 cells with AHR antagonist CH223191; assay type: cell-based, human; details: MCF-7, 10 nM compound, 1 μM CH223191, 14 days
Method: (§2) Cells were seeded at a density of 1–2×10^3 cells/well in a 6-well plate and treated with increasing concentrations of the X compounds for 14–21 days. Medium and compounds were renewed every 7 days. The experiments were terminated by fixing the cells with methanol and the colonies formed were visualized after staining with 0.5% crystal violet (w/v) in 20% methanol (v/v). Plates were photographed and the area covered by the colonies was calculated using the ColonyArea Plugin for Fiji (RRID:SCR_003070).[20]

[4] = target: T2, hERα (Homo sapiens, UniProt P03372); experiment: ER/ERE luciferase reporter assay in HELN hERα cells; assay type: cell-based; details: 10 nM–10 μM compound, with E2, 24 h
T2 construct: expressed in transfected cells; host or cells: HeLa (HELN hERα)
T2 sequence (P03372 1-595): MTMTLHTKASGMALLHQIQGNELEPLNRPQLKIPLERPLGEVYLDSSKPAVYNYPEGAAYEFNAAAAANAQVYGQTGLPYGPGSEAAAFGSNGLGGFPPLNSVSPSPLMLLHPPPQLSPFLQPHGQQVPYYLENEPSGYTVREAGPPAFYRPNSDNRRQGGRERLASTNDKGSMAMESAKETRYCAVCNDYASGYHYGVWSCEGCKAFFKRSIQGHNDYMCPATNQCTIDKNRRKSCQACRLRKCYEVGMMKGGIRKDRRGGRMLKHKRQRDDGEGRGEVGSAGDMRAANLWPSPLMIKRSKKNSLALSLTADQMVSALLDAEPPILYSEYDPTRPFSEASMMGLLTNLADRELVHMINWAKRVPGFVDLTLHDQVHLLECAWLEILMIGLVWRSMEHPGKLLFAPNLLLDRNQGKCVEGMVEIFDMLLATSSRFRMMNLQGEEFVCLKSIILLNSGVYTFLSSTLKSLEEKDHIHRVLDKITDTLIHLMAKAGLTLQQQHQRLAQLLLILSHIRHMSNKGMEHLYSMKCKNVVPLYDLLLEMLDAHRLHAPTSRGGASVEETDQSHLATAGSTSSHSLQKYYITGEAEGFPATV
From the text: as §1

[5] = system: MCF-7 luc D538G; experiment: Clonogenic assay (clonal expansion), MCF-7 cells with D538G ER mutation; assay type: cell-based; details: Homo sapiens, MCF7, 336 h
Method: as §2

[6] = read-out: IC50 clonal expansion, Figure 1B, MCF-7 luc D538G, absence of E2, 14 days
[7] = read-out: IC50 clonal expansion, Figure 1C, MCF-7 luc D538G + 10 nM E2, 14 days

SMILES | AHR transcriptional activity (reporter), in words [1] | EC50 [1] | Inhibition of Proliferation [2] | inhibition of colony expansion in the presence of AHR antagonist CH223191 [3] | transcription activity of ERα (reporter) [4] | IC50 [5, 6] | IC50 [5, 7] | IC50 ([5]; read-out: IC50 clonal expansion, Figure 1D, MCF-7 luc D538G, absence of E2, 14 days) | IC50 ([5]; read-out: IC50 clonal expansion, Figure 1E, MCF-7 luc D538G + 10 nM E2, 14 days)
Cc1cc(Cl)c2nc(-c3ccccc3)cn2c1 [X19728] | only modest enhancement | 3.94 nM | Yes | no effect on colony formation | reduced | 74.4 nM | 48 nM |  | 
Cc1cc(Cl)c2nc(-c3ccc(F)cc3)cn2c1 [X19724] | only modest enhancement | 1.37 nM | Yes | to a lesser extent | reduced | 324 nM | 31.6 nM |  | 
Fc1ccc(-c2cn3cc(C(F)(F)F)cc(Cl)c3n2)cc1 [X15695] | potency that surpassed that of the classical AHR ligand dioxin | 0.14 nM | Yes | clearly abrogated by the AHR antagonist CH223191 | reduced | 11.4 nM | 5.34 nM | 11.4 nM | 5.34 nM
